Earlier results on 58 compounds are cited in the CATMoS acute toxicity set (Mansouri et al. 2021).

The structures appear in SMILES notation. Several values for one entry are separate records, joined by “and”; a condition that tells them apart may be missing. Identical values can stand only once.

The nature of this series: rat acute oral toxicity. Conditions: in vivo.
In the case of `Clc1cc2oc3c(Cl)c(Cl)c(Cl)cc3c2cc1Cl`, the LD50 – broadly, the dose expected to kill half of the subjects tested – is 0.916 mg/kg.

Regarding `CCCCCCOC(C[n+]1ccccc1)c1ccc(C2CCCCC2)cc1` (stereo not drawn), the LD50 is 250 mg/kg.

Take `O=C1c2ccccc2C(=O)C1c1ccccc1`: the median lethal dose (LD50) is 163 mg/kg.

Consider `Cc1c(C(=O)NCCO)[n+]([O-])c2ccccc2[n+]1[O-]`, for which the LD50 was 1720 mg/kg.

As for `CCC(=O)O[C@](Cc1ccccc1)(c1ccccc1)[C@H](C)CN(C)C`, the LD50 is 84 mg/kg.

Regarding `CC(C)CCP(=O)(CCC(C)C)CCC(C)C`, the LD50 is 2240 mg/kg.

For `CN(C)CCN1C(=O)c2ccccc2Nc2cc(Cl)ccc21`, the LD50 was 242 mg/kg.

Consider `CCC12CCCN3CCc4c(n(c5cc(Br)ccc45)C(O)(C(=O)OC)C1)C32` (stereo not drawn), for which the LD50 was 1740 mg/kg.

With `CCOP(=S)(NC(C)CC)Oc1cc(C)ccc1[N+](=O)[O-]` (stereo not drawn), the LD50 was 630 mg/kg.

Take `CCCCCCCOCCO`: the LD50 was 2280 mg/kg.

Consider `COc1cc(C)c2[nH]c(C)c(CCN3CC4CCC(CC4)C3)c2c1`, for which the LD50 is 787 mg/kg.

Consider `CCC(=O)OCc1ccc(OC)cc1`, for which the LD50 was 3330 mg/kg.

Turning to `Nc1ccc(N=Nc2c(S(=O)(=O)O)cc3cc(S(=O)(=O)O)c(N=Nc4ccccc4)c(O)c3c2N)cc1`, the LD50 was 3000 mg/kg.

`O=C1C=CC(=O)N1c1ccc(Cl)cc1`: the LD50 was 440 mg/kg.

Consider `CC(O)CN(CC(C)O)CC(C)O` (stereo not drawn), for which the LD50 was 4730 mg/kg.

As to `O=C(O)CN(CCN(CC(=O)O)CC(=O)O)CCN(CC(=O)O)CC(=O)O`, the 50% lethal dose (LD50) was 4550 mg/kg.

With `CC1=C(C(=O)Nc2ccccc2)CCCO1`, the LD50 is 15000 mg/kg.

Take `CC12CCC3c4ccc(O)cc4CCC3C1CC[C@@H]2OC(=O)COC(=O)CCCc1ccc(N(CCCl)CCCl)cc1` (stereo partly drawn): the LD50 was 682 mg/kg.

`CC1CO1` (stereo not drawn): the LD50 is 380 mg/kg.

As for `O=C(CCl)CCl`, the LD50 is 20 mg/kg.

With `COC(COC(N)=O)C1=C(N2CC2)C(=O)C(C)=C(N2CC2)C1=O` (stereo not drawn), the LD50 was 27.3 mg/kg.

As to `CN(C)CC/C=C1\c2ccccc2CSc2ccccc21`, the LD50 was 450 mg/kg.

`Cc1cc(C)c(S(=O)(=O)O)c(C)c1Nc1ccc(Nc2c(C)cc(C)c(S(=O)(=O)O)c2C)c2c1C(=O)c1ccccc1C2=O`: the LD50 was 3350 mg/kg.

In the case of `Fc1cc(F)c2nc(C(F)(F)F)[nH]c2c1F`, the LD50 was 2.29 mg/kg.

For the compound `Cc1ccccc1N=C=O`, the 50% lethal dose (LD50) is 1600 mg/kg.

Consider `CC(SCC(=O)O)c1ccc2c(c1)Cc1ccccc1-2` (stereo not drawn), for which the LD50 is 1900 mg/kg.

As to `O=C(O)Cc1ccc(OCC2CC2)c(Cl)c1`, the LD50 was 895 mg/kg.

Regarding `CC(C(O)c1ccccc1)N(C)CCC#N` (stereo not drawn), the LD50 was 940 mg/kg.

`CC(C=O)Cc1ccc(C(C)C)cc1` (stereo not drawn): the LD50 was 3810 mg/kg.

As for `CC(C)=NOC(=O)Nc1ccccc1`, the LD50 was 1540 mg/kg.

`CCOP(=O)(OCC)SCSCC`: the LD50 is 0.25 mg/kg.

Regarding `Cc1ccc(C2=CCN(CC=Cc3ccc4c(c3)CCC(=O)N4)CC2)cc1`, the median lethal dose (LD50) was 500 mg/kg.

With `O=[N+]([O-])c1ccc2c(N=Nc3ccc4ccccc4c3O)c(O)cc(S(=O)(=O)O)c2c1`, the LD50 is 17600 mg/kg.

For the compound `C=CCNC(=O)OCC(O)C1COc2ccccc2O1` (stereo not drawn), the LD50 is 1500 mg/kg.

In the case of `CN(C(=O)c1ccc(N)cc1)C1CCN(C2CCCCC2)C1` (stereo not drawn), the LD50 is 422 mg/kg.

On to `Cc1cc(C=Cc2ccc3cc(N(C)C)ccc3[n+]2C)c(C)n1-c1ccccc1`, for which the LD50 is 161 mg/kg.

For `C=CC[C@@H]1C=C(C)C[C@H](C)C[C@H](OC)[C@H]2O[C@@](O)(C(=O)C(=O)N3CCCC[C@H]3C(=O)O[C@H](/C(C)=C/[C@@H]3CC[C@@H](O)[C@H](OC)C3)[C@H](C)[C@@H](O)CC1=O)[C@H](C)C[C@@H]2OC`, the LD50 is 134 mg/kg.

Consider `Cc1onc2c(=O)n(C)nc(-c3ccccc3)c12`, for which the LD50 was 1000 mg/kg.

For the compound `OCCN(CCO)c1nc(-c2ccccc2)c(-c2ccccc2)o1`, the median lethal dose (LD50) was 11400 mg/kg.

Take `CCC(Cc1c(I)cc(I)c(N)c1I)C(=O)O` (stereo not drawn): the LD50 is 2990 mg/kg and 1540 mg/kg.

For the compound `Nc1nc2ccc(Cl)cc2o1`, the LD50 is 226 mg/kg.

As to `CC(=O)[C@]1(O)Cc2c(O)c3c(c(O)c2[C@@H](O[C@H]2C[C@H](N)[C@H](O)[C@H](C)O2)C1)C(=O)c1ccccc1C3=O`, the LD50 was 5.43 mg/kg.

Turning to `CC[N+](CC)(CC)Cc1ccc(C(C)C(C)c2ccccc2)cc1` (stereo not drawn), the LD50 is 2180 mg/kg.

In the case of `CC(C)COC(=S)S`, the LD50 is 1290 mg/kg.

For the compound `CCN(CC)CCN1C(=O)NC(c2ccccc2)(c2ccccc2)C1=O`, the LD50 is 1300 mg/kg.

Take `N#CCc1ccc(Cl)cc1`: the LD50 was 50 mg/kg.

On to `COc1ccc(C(C)=O)cc1`, for which the LD50 was 1720 mg/kg.

In the case of `N#CCON=C(C#N)c1ccccc1`, the LD50 is 2280 mg/kg.

In the case of `C=CC=CC=CCCCCC`, the LD50 was 7560 mg/kg.

Consider `CC(Cl)COP(=O)(OCC(C)Cl)Oc1ccc([N+](=O)[O-])cc1` (stereo not drawn), for which the LD50 was 173 mg/kg.

Turning to `FC(F)(F)c1cccc(Nc2ccccc2-c2nn[nH]n2)c1`, the LD50 is 455 mg/kg.

Regarding `CCOP(=O)(OCC)OC(=C(Cl)Cl)c1cc(Cl)cc(Cl)c1`, the LD50 is 20 mg/kg.

For the compound `CCOCCC(OCC)OCC`, the LD50 is 1600 mg/kg.

Regarding `CC1(C)SCN(C(=O)C2(Oc3ccc(Cl)cc3)CCCCC2)C1C(=O)O` (stereo not drawn), the 50% lethal dose (LD50) is 4350 mg/kg.

With `CN1CCN(C(=O)OC2c3nccnc3C(=O)N2c2ccc(Cl)cn2)CC1` (stereo not drawn), the LD50 is 827 mg/kg.

For `CCCCC(CC)COCCC#N` (stereo not drawn), the median lethal dose (LD50) was 4920 mg/kg.

For `COP(=O)(OC)OC1=C(Cl)C2C=CCC12` (stereo not drawn), the LD50 is 96 mg/kg.

As to `NCCC[Si]12OCCN(CCO1)CCO2`, the 50% lethal dose (LD50) is 5800 mg/kg.
